The values below come from patent US20180360025A1, “ARTICLE OF MANUFACTURE AND METHODS FOR INCREASING SURVIVAL OF RED BLOOD CELLS” (Ramot at Tel-Aviv University Ltd., priority 2015, published 2018).

The assay deals with CytoD-treated RBC. The assay can be described thus: Recovery of CytoD-treated RBCs (Wright Giemsa stain and immunofluorescence). In kind it is cell-based, human. The following applies: CytoD 3 h, immunofluorescence. Here is the method:
Cytochalasin D (CytoD) is known to inhibit actin polymerization or depolymerization at barbed ends. The recovery effects of Wnts CM in RBCs was tested after incubation with CytoD in order to evaluate the potential effect of Wnt3/5 on polymerized actin in RBCs (FIGS. 12A-B). As show in FIGS. 12A-B, RBCs incubated with a medium containing Cyto D for 3 h, and then with Wnt 3/5 CM (in the absence of CytoD) for 6 h, were stained using two different methods. […] (FIG. 12B).

With `C=C1[C@@H](C)[C@H]2[C@H](Cc3ccccc3)NC(=O)[C@]23[C@H](OC(C)=O)/C=C/[C@@](C)(O)C(=O)[C@@H](C)C/C=C/[C@H]3[C@@H]1O` [CytoD, Cytochalasin D], the “actin state in RBCs after CytoD treatment” value was “aggregates of cytoplasm actin”.
